Laboratory results reported in patent US20190185865A1, “USE OF PROKARYOTIC TRANSCRIPTIONAL ACTIVATORS AS METABOLITE BIOSENSORS IN EUKARYOTIC CELLS” (Danmarks Tekniske Universitet, priority 2016, published 2019).
Several values for one entry are separate records, joined by “and”; a condition that tells them apart may be missing. Equal entries are not always repeated.

Legend:
[1] = tested on: yeast cells; assay: Growth of yeast cells in liquid medium containing CCM; type: cell-based, Saccharomyces cerevisiae; settings: pH 4.5
Protocol: FIG. 9 (a) Uptake of cis,cis-muconic acid (CCM) at pH 4.5 by S. cerevisiae cells following 24 h of growth. (b) Representative growth curves of yeast cells in liquid medium containing different concentrations of CCM. OD values were determined at 1-h intervals over 25-h period. For both (a) and (b) data display means±s.d. from three (n=3) biological replicate cultivations.

[2] = molecular target: T1, BenM^H110R, F211V, Y286N (Acinetobacter baylyi, UniProt O68014, F211V/H110R/Y286N); assay: CCM biosensor output versus CCM titers in CCM-producing yeast strains (HPLC, flow cytometry); type: cell-based
T1 construct: expressed in transfected cells; host or cells: Saccharomyces cerevisiae; centromeric plasmid (gap repair) or chromosomal integration, REV1p
T1 sequence (O68014 whole entry H110R/F211V/Y286N): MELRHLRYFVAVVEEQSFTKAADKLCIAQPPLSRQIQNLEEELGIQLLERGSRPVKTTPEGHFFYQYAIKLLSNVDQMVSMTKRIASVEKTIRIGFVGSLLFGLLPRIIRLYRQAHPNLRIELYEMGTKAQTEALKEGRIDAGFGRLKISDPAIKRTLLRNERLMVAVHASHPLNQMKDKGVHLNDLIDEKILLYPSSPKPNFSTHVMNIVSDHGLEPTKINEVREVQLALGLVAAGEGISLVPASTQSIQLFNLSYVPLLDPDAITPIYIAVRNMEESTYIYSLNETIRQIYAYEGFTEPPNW
Protocol: The CCM production strains were cultivated in 24-deep well plate with air-penetrable lids (EnzyScreen) to test for the production of CCM. Colonies from the individual strain were inoculated in 1 mL synthetic drop-out medium (Sigma-Aldrich), selecting for URA, HIS and LEU markers, and grown at 30° C. with 250 rpm agitation at 5 cm orbit cast for 24 h. 300 μL of the overnight cultures were used to inoculate 3 mL mineral medium (pH 4.5) in 24-deep well plate and incubated for 24-72 h at the same conditions as above. Experiments were performed in triplicates. The culture broth was centrifuged 3,500×rpm and the supernatant analyzed for CCM concentration using HPLC. For this purpose, samples were analyzed for 45 min using Aminex HPX-87H ion exclusion column with a 1 mM H2SO4 flow of 0.6 mL/min. The temperature of the column was 60° C. Refractive index and UV detectors (Dionex) were used for detection of CCM (250 nm). CCM concentrations were quantified by comparison with the spectrum of the standards. […] Naringenin was quantified using a quadratic calibration curve with authentic standards ranging from 0.039 mg/I to 20 mg/I using QuanLynx software (Waters).
Events were analyzed using FlowJo software (TreeStar Inc.). […]

[3] = Solubility in growth medium; type: physicochemical; settings: aqueous buffer, read-out: highest soluble CCM concentration

SMILES: O=C(O)/C=C\C=C/C(=O)O [CCM, cis, cis-muconic acid]
- growth of yeast in presence of CCM [1]: without any growth defects
- titers at which GFP outputs were saturated ([2]; 72 h of cultivation): > 1.41 mM and > 200 mg/L
- correlation (r) between GFP output and CCM production titers ([2]; six CCM production strains and null strain, 24 h): 0.98
- solubility [3]: 1400 µM and 200 µg/mL
